Experimental data reported in patent US20110218103A1, “Fluoroalkyl-substituted 2-amidobenzimidazoles” (BAYER CROPSCIENCE AG, priority 2010, published 2011).

System: Hordeum vulgare (HORVS)
Assay: Drought stress test on crop plants, spray application in greenhouse, visual damage rating
Type: in vivo
Conditions: 25 g/ha, mean of three results
Procedure: Seeds of monocotyledonous and dicotyledonous crop plants were placed in sandy loam in wood-fiber pots, covered with soil and cultivated in a greenhouse under good growth conditions. The test plants were treated at the early leaf stage (BBCH10-BBCH13). To ensure uniform water supply before commencement of stress, the potted plants were supplied with the maximum amount of water immediately beforehand by dam irrigation and, after application, transferred in plastic inserts in order to prevent subsequent, excessively rapid drying. The inventive compounds, formulated in the form of wettable powders (WP), wettable granules (WG), suspension concentrates (SC) or emulsion concentrates (EC), were sprayed onto the green parts of the plants as an aqueous suspension at an equivalent water application rate of 600 l/ha with addition of 0.2% wetting agent (agrotin). Substance application was followed immediately by stress treatment of the plants (cold or drought stress). For cold stress treatment, the plants were kept under the following controlled conditions: Drought stress was induced by gradual drying out under the following conditions: “day”: 14 hours with illumination at 26° C. “night”: 10 hours without illumination at 18° C. The duration of the respective stress phases was guided mainly by the state of the untreated, stressed control plants and thus varies from crop to crop. It was ended (by re-irrigating or transfer to a greenhouse with good growth conditions) as soon as irreversible damage is observed on the untreated, stressed control plants. In the case of dicotyledonous crops, for example oilseed rape and soya, the duration of the drought stress phase was between 3 and 5 days, in the case of monocotyledonous crops, for example wheat, barley or corn, between 6 and 10 days. The duration of the cold stress phase varied between 12 and 14 days. The end of the stress phase was followed by an approx. 5-7-day recovery phase, during which the plants were once again kept under good growth conditions in a greenhouse. In order to rule out any influence of the effects observed by any fungicidal action of the test compounds, it was additionally ensured that the tests proceed without fungal infection and without infection pressure. After the recovery phase had ended, the intensities of damage were rated visually compared to untreated, unstressed controls of the same age (in the case of drought stress) or the same growth stage (in the case of cold stress). The intensity of damage was first assessed as a percentage (100%=plants have died, 0%=like control plants). These values were then used to calculate the efficacy of the test compounds (=percentage reduction in the intensity of damage as a result of substance application) by the following formula: [formula] EF: efficacy (%) DVus: damage value of the untreated, stressed control DVts: damage value of the plants treated with test compound The tables below list mean values in each case from three results of the same test. Effects of selected compounds of the formula (I) under drought stress: HORVS=Hordeum vulgare

SMILES | EF (HORVS), efficacy = percentage reduction in the intensity of damage [%]
NC(=O)c1cccc2[nH]c(C(F)(F)C(F)(F)F)nc12 [1-2, 2-(pentafluoroethyl)-1H-benzimidazole-4-carboxamide] | >5
NC(=O)c1cccc2[nH]c(C(F)(F)C(F)(F)C(F)(F)F)nc12 [1-17] | >5
